Read-outs that look alike come from different tables or passages of the source.
Legend:
[1] = Pharmacokinetic test of compounds in rats (plasma, LC/MS/MS); format: in vivo, male SD rats; conditions: for AUC(0-t): read-out: Area under the curve AUC0-last
Summary of the method: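 Male SD rats, 7-9 weeks old, given single IV (3 mg/kg) or intragastric PO (10 mg/kg) doses in 5% DMSO/10% solutol/85% water. Plasma drug levels measured by LC/MS/MS at several time points to derive PK parameters.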

Ba/F3 LMNA-NTRK1-WT = molecular target: T1, Ba/F3 LMNA-NTRK1-WT (Homo sapiens, UniProt P04629); experiment: Inhibitory activity against cell proliferation (CellTiter-Glo, 72 hours); format: cell-based; conditions: read-out: Half maximal inhibitory concentration IC50 of cells, Ba/F3 LMNA-NTRK1-WT
T1 construct: fused on or other part: N-terminal part of LMNA as fusion partner (part of the key); P02545 (Prelamin-A/C)
T1 sequence (P04629 whole entry, stated change not applied, the tested form may be a part): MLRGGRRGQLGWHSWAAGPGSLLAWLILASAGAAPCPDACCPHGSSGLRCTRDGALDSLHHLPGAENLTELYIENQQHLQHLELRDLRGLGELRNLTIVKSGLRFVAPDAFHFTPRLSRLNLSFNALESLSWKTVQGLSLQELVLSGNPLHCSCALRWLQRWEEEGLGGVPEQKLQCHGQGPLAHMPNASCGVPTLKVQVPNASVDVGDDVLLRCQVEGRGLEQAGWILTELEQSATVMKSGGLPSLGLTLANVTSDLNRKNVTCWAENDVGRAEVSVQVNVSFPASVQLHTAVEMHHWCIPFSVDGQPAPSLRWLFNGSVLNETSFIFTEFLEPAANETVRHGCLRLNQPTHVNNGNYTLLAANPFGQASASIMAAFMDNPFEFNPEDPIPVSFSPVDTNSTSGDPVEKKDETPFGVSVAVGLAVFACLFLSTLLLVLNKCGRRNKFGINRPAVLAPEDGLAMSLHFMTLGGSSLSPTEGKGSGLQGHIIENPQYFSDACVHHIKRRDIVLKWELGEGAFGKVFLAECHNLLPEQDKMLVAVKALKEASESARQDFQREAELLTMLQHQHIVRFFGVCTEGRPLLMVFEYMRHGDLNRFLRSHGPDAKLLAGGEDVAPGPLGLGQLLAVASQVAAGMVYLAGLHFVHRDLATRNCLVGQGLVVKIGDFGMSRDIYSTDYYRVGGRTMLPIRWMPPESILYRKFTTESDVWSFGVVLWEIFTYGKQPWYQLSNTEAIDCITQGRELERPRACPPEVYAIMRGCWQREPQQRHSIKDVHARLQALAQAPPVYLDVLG
Summary of the method: (§1)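 Log-phase Ba/F3 cells (trypan blue viability above 90%) were treated in triplicate with a 9-point, 3-fold compound series. ATP-dependent luminescence was read after CellTiter-Glo addition, and IC50 values came from nonlinear sigmoidal dose-response fits.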

BaF3 LMNA-NTRK1-G595R = molecular target: T2, BaF3 LMNA-NTRK1-G595R (Homo sapiens, UniProt P04629, G595R, cells depend on it); experiment: as above; format: cell-based; conditions: read-out: Half maximal inhibitory concentration IC50 of cells, BaF3 LMNA-NTRK1-G595R
T2 construct: fused on or other part: N-terminal part of LMNA as fusion partner (part of the key); P02545 (Prelamin-A/C)
T2 sequence (P04629 whole entry G595R, the tested form may be a part): as the sequence (P04629 whole entry, stated change not applied, the tested form may be a part) above, with G595R counted along it
Summary of the method: as §1

BaF3 ETV6-NTRK3-WT = molecular target: T3, BaF3 ETV6-NTRK3-WT (Homo sapiens, UniProt Q16288); experiment: as above; format: cell-based; conditions: read-out: Half maximal inhibitory concentration IC50 of cells, BaF3 ETV6-NTRK3-WT
T3 construct: fused on or other part: N-terminal part of ETV6 (TEL) as fusion partner (part of the key); P41212 (Transcription factor ETV6)
T3 sequence (Q16288 whole entry, change not shown, the tested form may be a part): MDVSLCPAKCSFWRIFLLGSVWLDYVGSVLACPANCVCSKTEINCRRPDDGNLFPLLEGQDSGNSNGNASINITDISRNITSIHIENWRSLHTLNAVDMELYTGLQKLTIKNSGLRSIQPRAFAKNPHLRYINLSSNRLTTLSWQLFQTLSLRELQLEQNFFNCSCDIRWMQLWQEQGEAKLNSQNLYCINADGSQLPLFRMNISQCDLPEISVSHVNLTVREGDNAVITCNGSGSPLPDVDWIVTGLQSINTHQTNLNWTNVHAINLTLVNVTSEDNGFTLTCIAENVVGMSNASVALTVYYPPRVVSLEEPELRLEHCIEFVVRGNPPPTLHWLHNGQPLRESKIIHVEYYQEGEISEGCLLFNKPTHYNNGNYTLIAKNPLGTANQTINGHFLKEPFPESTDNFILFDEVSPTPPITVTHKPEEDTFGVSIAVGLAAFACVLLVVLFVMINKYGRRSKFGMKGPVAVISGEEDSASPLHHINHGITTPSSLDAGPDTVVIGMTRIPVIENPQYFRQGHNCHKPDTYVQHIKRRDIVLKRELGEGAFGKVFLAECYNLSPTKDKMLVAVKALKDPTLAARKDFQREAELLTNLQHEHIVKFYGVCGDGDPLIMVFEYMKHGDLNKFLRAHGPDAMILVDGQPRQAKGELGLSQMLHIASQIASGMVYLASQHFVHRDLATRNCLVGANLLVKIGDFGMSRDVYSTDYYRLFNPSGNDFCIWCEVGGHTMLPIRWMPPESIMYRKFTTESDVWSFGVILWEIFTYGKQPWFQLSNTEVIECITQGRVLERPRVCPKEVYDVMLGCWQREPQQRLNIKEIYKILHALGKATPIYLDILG
Summary of the method: as §1

Ba/F3 LMNA-NTRK1-F589L = molecular target: T4, Ba/F3 LMNA-NTRK1-F589L (Homo sapiens, UniProt P04629, F589L, cells depend on it); experiment: as above; format: cell-based; conditions: read-out: Half maximal inhibitory concentration IC50 of cells, Ba/F3 LMNA-NTRK1-F589L
T4 construct: fused on or other part: N-terminal part of LMNA as fusion partner (part of the key); P02545 (Prelamin-A/C)
T4 sequence (P04629 whole entry F589L, the tested form may be a part): as the sequence (P04629 whole entry, stated change not applied, the tested form may be a part) above, with F589L counted along it
Summary of the method: as §1

BaF3 LMNA-NTRK1-G667A = molecular target: T5, BaF3 LMNA-NTRK1-G667A (Homo sapiens, UniProt P04629, G667A, cells depend on it); experiment: as above; format: cell-based; conditions: read-out: Half maximal inhibitory concentration IC50 of cells, BaF3 LMNA-NTRK1-G667A
T5 construct: fused on or other part: N-terminal part of LMNA as fusion partner (part of the key); P02545 (Prelamin-A/C)
T5 sequence (P04629 whole entry G667A, the tested form may be a part): as the sequence (P04629 whole entry, stated change not applied, the tested form may be a part) above, with G667A counted along it
Summary of the method: as §1

Ba/F3 ETV6-NTRK3 cells = experiment: Efficacy test in animals: subcutaneous xenograft, intragastric administration; format: in vivo, nude mice; conditions: for TGI (tumor growth inhibition rate): day of dissection
Description: Cells in the logarithmic growth phase were collected and resuspended in serum-free medium to a cell concentration of 2-4×10^7 cells/mL. An equal volume of matrigel was added to the cell suspension to achieve a final cell concentration of 1-2×10^7 cells/mL. 0.2 mL of tumor cell suspension was subcutaneously inoculated at the scapula of each nude mouse with the inoculation amount of 2-4×10^6 cells/mouse to prepare the animal models.

Compound: O=C1NC2(CC2)COc2ncc(F)cc2C2COCCN2c2ccn3ncc1c3n2 (single isomer, unassigned) [WX001B]
- Apparent clearance Cl ([1]; IV, 3 mg/kg): 19.7 mL/min/kg
- Vd ([1]; male, SD, rat, plasma, IV, 3 mg/kg, read-out: Apparent volume of distribution Vd): 1.9 L/kg
- AUC(0-t) ([1]; male, SD, rat, plasma, IV, 3 mg/kg): 6.24 µM·h
- half-life ([1]; male, SD, rat, plasma, IV, 3 mg/kg, read-out: Half-life T1/2 (converted)): 1.2 h
- AUC(0-t) ([1]; male, SD, rat, plasma, PO, 10 mg/kg): 8.07 µM·h
- bioavailability ([1]; male, SD, rat, plasma, PO, 10 mg/kg, read-out: Bioavailability F %): 39%
- Cmax ([1]; male, SD, rat, plasma, PO, 10 mg/kg, read-out: Peak concentration Cmax): 1800 nM
- GI50 (Ba/F3 LMNA-NTRK1-WT): 0.6 nM
- GI50 (BaF3 LMNA-NTRK1-G595R): 2.7 nM
- GI50 (BaF3 ETV6-NTRK3-WT): 2.6 nM
- GI50 (Ba/F3 LMNA-NTRK1-F589L): 7.7 nM
- GI50 (BaF3 LMNA-NTRK1-G667A): 0.8 nM
- Inhibition of growth of subcutaneous xenografts (Ba/F3 ETV6-NTRK3 cells; 2.5-20 mg/kg): in a dose-dependent manner
- Relative tumor proliferation rate T/C (Ba/F3 ETV6-NTRK3 cells; Day 0, 2.5 mg/kg bid): 100.00%
- Tumor volume (Ba/F3 ETV6-NTRK3 cells; Day 0, 2.5 mg/kg bid): 303.54 ± 48.83 mm^3
- Relative tumor proliferation rate T/C (Ba/F3 ETV6-NTRK3 cells; Day 0, 5 mg/kg bid): 100.00%
- Tumor volume (Ba/F3 ETV6-NTRK3 cells; Day 0, 5 mg/kg bid): 303.26 ± 50.47 mm^3
- Relative tumor proliferation rate T/C (Ba/F3 ETV6-NTRK3 cells; Day 0, 10 mg/kg bid): 100.00%
- Tumor volume (Ba/F3 ETV6-NTRK3 cells; Day 0, 10 mg/kg bid): 303.14 ± 45.09 mm^3
- Relative tumor proliferation rate T/C (Ba/F3 ETV6-NTRK3 cells; Day 0, 20 mg/kg bid): 100.00%
- Tumor volume (Ba/F3 ETV6-NTRK3 cells; Day 0, 20 mg/kg bid): 303.47 ± 45.79 mm^3
- Relative tumor proliferation rate T/C (Ba/F3 ETV6-NTRK3 cells; Day 3, 2.5 mg/kg bid): 42.59%
- Tumor volume (Ba/F3 ETV6-NTRK3 cells; Day 3, 2.5 mg/kg bid): 360.24 ± 88.80 mm^3
- Relative tumor proliferation rate T/C (Ba/F3 ETV6-NTRK3 cells; Day 3, 5 mg/kg bid): 43.90%
- Tumor volume (Ba/F3 ETV6-NTRK3 cells; Day 3, 5 mg/kg bid): 371.36 ± 111.74 mm^3
- Relative tumor proliferation rate T/C (Ba/F3 ETV6-NTRK3 cells; Day 3, 10 mg/kg bid): 30.18%
- Tumor volume (Ba/F3 ETV6-NTRK3 cells; Day 3, 10 mg/kg bid): 255.24 ± 87.04 mm^3
- Relative tumor proliferation rate T/C (Ba/F3 ETV6-NTRK3 cells; Day 3, 20 mg/kg bid): 31.16%
- Tumor volume (Ba/F3 ETV6-NTRK3 cells; Day 3, 20 mg/kg bid): 263.60 ± 85.49 mm^3
- Relative tumor proliferation rate T/C (Ba/F3 ETV6-NTRK3 cells; Day 5, 2.5 mg/kg bid): 29.79%
- Tumor volume (Ba/F3 ETV6-NTRK3 cells; Day 5, 2.5 mg/kg bid): 376.59 ± 84.87 mm^3
- Relative tumor proliferation rate T/C (Ba/F3 ETV6-NTRK3 cells; Day 5, 5 mg/kg bid): 22.33%
- Tumor volume (Ba/F3 ETV6-NTRK3 cells; Day 5, 5 mg/kg bid): 282.31 ± 46.30 mm^3
- Relative tumor proliferation rate T/C (Ba/F3 ETV6-NTRK3 cells; Day 5, 10 mg/kg bid): 19.15%
- Tumor volume (Ba/F3 ETV6-NTRK3 cells; Day 5, 10 mg/kg bid): 242.09 ± 78.53 mm^3
- Relative tumor proliferation rate T/C (Ba/F3 ETV6-NTRK3 cells; Day 5, 20 mg/kg bid): 22.72%
- Tumor volume (Ba/F3 ETV6-NTRK3 cells; Day 5, 20 mg/kg bid): 287.22 ± 96.26 mm^3
- Relative tumor proliferation rate T/C (Ba/F3 ETV6-NTRK3 cells; Day 7, 2.5 mg/kg bid): 18.12%
- Tumor volume (Ba/F3 ETV6-NTRK3 cells; Day 7, 2.5 mg/kg bid): 388.09 ± 100.42 mm^3
- Relative tumor proliferation rate T/C (Ba/F3 ETV6-NTRK3 cells; Day 7, 5 mg/kg bid): 16.77%
- Tumor volume (Ba/F3 ETV6-NTRK3 cells; Day 7, 5 mg/kg bid): 353.35 ± 109.82 mm^3
- Relative tumor proliferation rate T/C (Ba/F3 ETV6-NTRK3 cells; Day 7, 10 mg/kg bid): 12.50%
- Tumor volume (Ba/F3 ETV6-NTRK3 cells; Day 7, 10 mg/kg bid): 263.53 ± 134.53 mm^3
- Relative tumor proliferation rate T/C (Ba/F3 ETV6-NTRK3 cells; Day 7, 20 mg/kg bid): 9.56%
- Tumor volume (Ba/F3 ETV6-NTRK3 cells; Day 7, 20 mg/kg bid): 201.43 ± 135.76 mm^3
- Relative tumor proliferation rate T/C (Ba/F3 ETV6-NTRK3 cells; Day 9, 2.5 mg/kg bid): 18.22%
- Tumor volume (Ba/F3 ETV6-NTRK3 cells; Day 9, 2.5 mg/kg bid): 499.09 ± 161.54 mm^3
- Relative tumor proliferation rate T/C (Ba/F3 ETV6-NTRK3 cells; Day 9, 5 mg/kg bid): 16.04%
- Tumor volume (Ba/F3 ETV6-NTRK3 cells; Day 9, 5 mg/kg bid): 439.46 ± 222.47 mm^3
- Relative tumor proliferation rate T/C (Ba/F3 ETV6-NTRK3 cells; Day 9, 10 mg/kg bid): 7.73%
- Tumor volume (Ba/F3 ETV6-NTRK3 cells; Day 9, 10 mg/kg bid): 211.85 ± 87.87 mm^3
- Relative tumor proliferation rate T/C (Ba/F3 ETV6-NTRK3 cells; Day 9, 20 mg/kg bid): 4.91%
- Tumor volume (Ba/F3 ETV6-NTRK3 cells; Day 9, 20 mg/kg bid): 134.49 ± 117.51 mm^3
- Relative tumor proliferation rate T/C (Ba/F3 ETV6-NTRK3 cells; Day 11, 2.5 mg/kg bid): 15.67%
- Tumor volume (Ba/F3 ETV6-NTRK3 cells; Day 11, 2.5 mg/kg bid): 590.74 ± 266.98 mm^3
- Relative tumor proliferation rate T/C (Ba/F3 ETV6-NTRK3 cells; Day 11, 5 mg/kg bid): 8.73%
- Tumor volume (Ba/F3 ETV6-NTRK3 cells; Day 11, 5 mg/kg bid): 328.91 ± 190.07 mm^3
- Relative tumor proliferation rate T/C (Ba/F3 ETV6-NTRK3 cells; Day 11, 10 mg/kg bid): 4.82%
- Tumor volume (Ba/F3 ETV6-NTRK3 cells; Day 11, 10 mg/kg bid): 181.69 ± 121.62 mm^3
- Relative tumor proliferation rate T/C (Ba/F3 ETV6-NTRK3 cells; Day 11, 20 mg/kg bid): 2.89%
- Tumor volume (Ba/F3 ETV6-NTRK3 cells; Day 11, 20 mg/kg bid): 109.00 ± 116.94 mm^3
- TGI (tumor growth inhibition rate) (Ba/F3 ETV6-NTRK3 cells; 2.5 mg/kg bid): 84.33%
- TGI (tumor growth inhibition rate) (Ba/F3 ETV6-NTRK3 cells; 5 mg/kg bid): 91.27%
- TGI (tumor growth inhibition rate) (Ba/F3 ETV6-NTRK3 cells; 10 mg/kg bid): 95.18%
- TGI (tumor growth inhibition rate) (Ba/F3 ETV6-NTRK3 cells; 20 mg/kg bid): 97.11%
- Tumor inhibition rate (by tumor weight) (Ba/F3 ETV6-NTRK3 cells; end of the test, 2.5 mg/kg bid): 85.47%
- Tumor weight (Ba/F3 ETV6-NTRK3 cells; end of the test, 2.5 mg/kg bid): 0.25 ± 0.15 g

— patent US20210403485A1, “PYRAZOLOPYRIMIDINE DERIVATIVE AS SELECTIVE TRK INHIBITOR” (SHANDONG LUYE PHARMACEUTICAL CO., LTD., priority 2018, published 2021)
